In patent publication US5185331A, “Triazolobenzodiazepines” (Merck & Co., Inc., priority 1991, dated 1993):
Where two headings read alike, the source gives them in different places.

Experiments:
CCK-A receptors = conditions: pancreas, gallbladder, colon; cited from earlier work
CCK receptor (pancreas) = molecular target: T1, CCK receptor (pancreas) (Rattus norvegicus, UniProt P30551); assay: 125I-CCK receptor binding (pancreas); parameters: species or system rat (male Sprague-Dawley); conditions: for effect on the 125I-CCK receptor binding assay: added as protease inhibitor
T1 construct: The whole pancreas was dissected free of fat tissue and was homogenized; from tissue; host or cells: rat pancreas (male Sprague-Dawley), washed membrane pellet of homogenate
T1 sequence (P30551 1-444): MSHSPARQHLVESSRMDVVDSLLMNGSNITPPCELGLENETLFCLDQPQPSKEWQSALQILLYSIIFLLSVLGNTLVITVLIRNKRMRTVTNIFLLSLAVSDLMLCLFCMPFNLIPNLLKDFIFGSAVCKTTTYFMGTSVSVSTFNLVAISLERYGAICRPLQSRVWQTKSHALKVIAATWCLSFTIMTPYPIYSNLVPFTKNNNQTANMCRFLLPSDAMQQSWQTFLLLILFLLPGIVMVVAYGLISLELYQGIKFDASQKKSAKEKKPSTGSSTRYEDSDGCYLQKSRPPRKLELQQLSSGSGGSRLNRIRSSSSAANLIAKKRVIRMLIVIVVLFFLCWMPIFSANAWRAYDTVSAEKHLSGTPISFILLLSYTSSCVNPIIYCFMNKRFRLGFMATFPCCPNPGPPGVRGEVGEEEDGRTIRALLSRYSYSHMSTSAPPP
Description: 1. CCK receptor binding (pancreas)
CCK-33 was radiolabeled with ^125 I-Bolton Hunter reagent (2000 Ci/mmole) as described by Sankara et al. (J. Biol. Chem. 254: 9349-9351, 1979). Receptor binding was performed according to Innis and Snyder (Proc. Natl. Acad. Sci. 77: 6917-6921, 1980) with the minor modification of adding the additional protease inhibitors, phenylmethane sulfonyl fluoride and o-phenanthroline. The latter two compounds have no effect on the ^125 I-CCK receptor binding assay.
Male Sprague-Dawley rats (200-350 g) were sacrificed by decapitation. The whole pancreas was dissected free of fat tissue and was homogenized in 20 volumes of ice-cold 50 mM, Tris HCl (pH 7.7 at 25° C.) with a Brinkmann Polytron PT 10. The homogenates were centrifuged at 48,000 g for 10 min. Pellets were resuspended in Tris Buffer, centrifuged as above and resuspended in 200 volumes of binding assay buffer (50 mM Tris HCl, pH 7.7 at 25° C., 5 mM dithiothrietol, 0.1 mM bacitracin, 1.2 mM phenylmethane sulfonyl fluoride and 0.5 mM o-phenanthroline). […] All assays were run in duplicate or triplicate. The reaction mixtures were incubated at 37° C. for 30 minutes and centrifuged in a Beckman Microfuge (4 minutes) immediately after adding 1 ml of ice-cold incubation buffer. The supernatant was aspirated and discarded, pellets were counted with a Beckman gamma 5000. For Scatchard analysis (Ann. N.Y. Acad. Sci. 51: 660, 1949), ^125 I-CCK-33 was progressively diluted with increasing concentrations of CCK-33.

CCK receptor (brain) = molecular target: T2, CCK receptor (brain) (Cavia porcellus, UniProt H0VZC5); assay: 125I-CCK receptor binding (brain); parameters: species or system guinea pig (male Hartley); conditions: guinea pig cerebral cortex, 125I-CCK-33, 25° C., 2 hours
T2 construct: Cerebral cortex was dissected and used as a receptor source; from tissue; host or cells: guinea pig cerebral cortex (male Hartley), washed membrane pellet of homogenate
Description: 2. CCK Receptor Binding (Brain)
CCK-33 was radiolabeled and the binding was performed according to the description for the pancreas method with modification according to Saito et al. (J. Neurochem. 37, 483-490, 1981).
Male Hartley guinea pigs (300-500 g) were sacrificed by decapitation and the brains were removed and placed in ice-cold 50 mM, Tris HCl plus 7.58 g/l Trizma-7.4 (pH 7.4 at 25° C.). Cerebral cortex was dissected and used as a receptor source. Each gram of fresh guinea pig brain tissue was homogenized in 10 ml of Tris Trizma buffer with a Brinkman polytron PT-10. The homogenates were centrifuged at 42,000 g for 15 min. […] All assays were run in duplicate or triplicate. The reaction mixtures were incubated at 25° C. for 2 hours and centrifuged in a Beckman Microfuge (4 minutes) immediately after adding 1 ml of ice-cold incubation buffer. The supernatant was aspirated and discarded, pellets were counted with a Beckman gamma 5000.

CCK-B receptors = conditions: brain; cited from earlier work
[1] = rat, brain synaptosomal fraction; cited from earlier work

T2 sequence (H0VZC5 entry or part of it): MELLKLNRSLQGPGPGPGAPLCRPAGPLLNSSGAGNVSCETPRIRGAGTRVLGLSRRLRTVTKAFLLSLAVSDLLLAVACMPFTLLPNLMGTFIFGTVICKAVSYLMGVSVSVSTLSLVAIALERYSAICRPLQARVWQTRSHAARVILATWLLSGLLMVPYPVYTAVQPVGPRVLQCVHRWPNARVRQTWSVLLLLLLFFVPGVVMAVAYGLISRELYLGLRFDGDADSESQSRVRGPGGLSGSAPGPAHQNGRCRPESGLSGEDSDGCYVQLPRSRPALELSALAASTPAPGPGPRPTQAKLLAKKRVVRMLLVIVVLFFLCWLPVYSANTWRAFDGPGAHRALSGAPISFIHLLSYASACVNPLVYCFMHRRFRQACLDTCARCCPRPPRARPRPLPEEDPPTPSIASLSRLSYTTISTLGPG

Row | Compound | affinity for CCK-A receptors (CCK-A receptors) | affinity for CCK-B receptors (CCK-B receptors) | also measured
1 | gastrin | lower affinity |  | 
2 | O=C(Nc1ccc(Cl)cc1)NC1N=C(c2ccccc2)c2ccccc2-n2cnnc21 (centres unmarked) [Compound 11, N-(4-Chlorophenyl)-N'-(6-phenyl-4H-[1,2,4]triazolo-[4,3-a][1,4]benzodiazepin-4-yl)urea] |  |  | IC50 (CCK receptor (pancreas)): 0.12 µM; IC50 (CCK receptor (brain)): 0.48 µM
3 | CCK-4 | lower affinity | high affinity | 
4 | CSCC[C@H](NC(=O)[C@H](Cc1c[nH]c2ccccc12)NC(=O)CCNC(=O)OC(C)(C)C)C(=O)N[C@@H](CC(=O)O)C(=O)N[C@@H](Cc1ccccc1)C(N)=O [pentagastrin] |  | high affinity | 
5 | CCK-8d: the corresponding desulphated fragment | lower affinity |  | 
6 | O=S(=O)(F)Cc1ccccc1 [phenylmethane sulfonyl fluoride] |  |  | effect on the 125I-CCK receptor binding assay (CCK receptor (pancreas)): no effect
7 | c1cnc2c(c1)ccc1cccnc12 [o-phenanthroline] |  |  | effect on the 125I-CCK receptor binding assay (CCK receptor (pancreas)): no effect
8 | Cc1nnc2n1-c1ccccc1C(c1ccccc1)=NC2NC(=O)Nc1ccc(Cl)cc1 (centres unmarked) [Compound 12, N-(4-Chlorophenyl)-N'-(1-methyl-6-phenyl-4H-[1,2,4]triazolo[4,3-a][1,4]benzodiazepin-4-yl)urea] |  |  | IC50 (CCK receptor (pancreas); rat pancreas membranes, 125I-CCK-33, 37° C., 30 minutes): 0.082 µM; IC50 (CCK receptor (brain)): 0.08 µM
9 | CSCC[C@H](NC(=O)[C@H](Cc1ccc(OS(=O)(=O)O)cc1)NC(=O)[C@@H](N)CC(=O)O)C(=O)NCC(=O)N[C@@H](Cc1c[nH]c2ccccc12)C(=O)N[C@@H](CCSC)C(=O)N[C@@H](CC(=O)O)C(=O)N[C@@H](Cc1ccccc1)C(N)=O [CCK-8s, H-Asp-Tyr(SO3 H)-Met-Gly-Trp-Met-Asp-Phe-NH2] | high affinity | high affinity | half-life [1]: less than 1 hour
